Conditions: in water

O=C(O)COCC(=O)O
Conditions	solubility (mole fraction)
278.25 K	0.0365
284.15 K	0.0469
288.75 K	0.0686
293.75 K	0.0748
296.65 K	0.0823
301.25 K	0.104
310.65 K	0.128
313.15 K	0.139
321.15 K	0.161
323.15 K	0.167
327.65 K	0.188
332.65 K	0.205
338.15 K	0.22
343.15 K	0.239
348.15 K	0.254
353.05 K	0.268
357.15 K	0.284
361.35 K	0.295

O=C(O)CCCCCCCC(=O)O
Conditions	solubility (mole fraction)
280.15 K	5.94e-05
285.85 K	8.13e-05
291.85 K	0.000117
298.15 K	0.000171
307.85 K	0.000287
316.15 K	0.000336
325.75 K	0.000481
330.15 K	0.0007
334.65 K	0.000931
338.15 K	0.00128
344.15 K	0.00132
347.65 K	0.00153
353.05 K	0.00191
357.65 K	0.00173

O=C(O)CCCCCCC(=O)O
Conditions	solubility (mole fraction)
280.15 K	9.55e-05
285.85 K	0.000128
291.85 K	0.000177
298.15 K	0.00025
305.65 K	0.000341
307.65 K	0.000369
313.15 K	0.00042
317.65 K	0.000485
323.35 K	0.000579
325.85 K	0.00064
334.65 K	0.00101
337.15 K	0.00117
343.25 K	0.00149
349.65 K	0.00212

CC(=O)CCC(=O)O
Conditions	solubility (mole fraction)
280.15 K	0.18
283.15 K	0.214
287.65 K	0.278
293.95 K	0.374
298.15 K	0.448
303.25 K	0.519

Source: BigSolDB 2.1
